Measured values reported in ChEMBL document CHEMBL3763146 (J Med Chem, 2016).

Columns and labels:
[1] = biological target: Beta-3 adrenergic receptor (Canis lupus familiaris, UniProt O02662); test: Agonist activity at dog beta3 adrenergic receptor expressed in CHO cells assessed as accumulation of cAMP after 30 mins by TR-FRET assay; type: functional, cell-based
[2] = biological target: T1, Beta-3 adrenergic receptor (Homo sapiens, UniProt P13945); test: Agonist activity at human adrenergic beta3 receptor expressed in CHO cells assessed as accumulation of cAMP after 30 mins by TR-FRET assay in presence of 40% serum relative to (R)-(-)-isoproterenol; type: functional, cell-based
T1 sequence (P13945 whole entry, looked up): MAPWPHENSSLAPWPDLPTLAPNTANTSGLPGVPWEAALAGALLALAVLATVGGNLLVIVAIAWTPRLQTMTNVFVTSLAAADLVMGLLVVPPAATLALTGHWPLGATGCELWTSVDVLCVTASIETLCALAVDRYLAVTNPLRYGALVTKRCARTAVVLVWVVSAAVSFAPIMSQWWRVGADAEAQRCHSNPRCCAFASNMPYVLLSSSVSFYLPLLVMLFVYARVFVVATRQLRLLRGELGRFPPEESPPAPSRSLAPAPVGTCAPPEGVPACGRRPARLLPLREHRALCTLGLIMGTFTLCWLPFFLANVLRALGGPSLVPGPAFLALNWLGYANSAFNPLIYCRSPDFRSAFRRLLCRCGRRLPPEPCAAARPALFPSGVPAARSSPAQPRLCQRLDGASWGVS

[3] = biological target: Beta-3 adrenergic receptor (Macaca mulatta) (UniProt Q28524); test: Agonist activity at rhesus monkey beta3 adrenergic receptor expressed in CHO cells assessed as accumulation of cAMP after 30 mins by TR-FRET assay in presence of 40% serum relative to (R)-(-)-isoproterenol; type: functional, cell-based
Beta-3 adrenergic receptor (Macaca mulatta), sequence (Q28524 whole entry): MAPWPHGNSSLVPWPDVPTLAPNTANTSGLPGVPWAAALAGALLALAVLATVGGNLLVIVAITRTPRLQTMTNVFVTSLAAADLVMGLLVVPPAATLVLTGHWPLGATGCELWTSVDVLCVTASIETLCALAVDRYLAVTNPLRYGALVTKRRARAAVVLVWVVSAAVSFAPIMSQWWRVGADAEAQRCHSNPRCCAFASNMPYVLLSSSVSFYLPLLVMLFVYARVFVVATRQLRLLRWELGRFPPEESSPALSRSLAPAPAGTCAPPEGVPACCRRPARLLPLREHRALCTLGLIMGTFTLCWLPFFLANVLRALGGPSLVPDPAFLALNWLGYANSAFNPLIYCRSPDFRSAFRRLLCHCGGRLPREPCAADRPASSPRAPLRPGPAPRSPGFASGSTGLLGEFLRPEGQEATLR

[4] = Induction of phospholidosis in human HepG2 cells incubated overnight by […] in presence of fluorescent labeled phospholipid probe NBD-PE; type: cell-based; conditions: read-out: A50
[5] = biological target: Sodium-dependent serotonin transporter (Homo sapiens, UniProt P31645); test: Inhibition of human SERT expressed in HEK293 cells preincubated for 30 mins followed by fluorescent substrate addition measured after 30 mins by plate reader analysis; type: cell-based
Sodium-dependent serotonin transporter, sequence (P31645 whole entry): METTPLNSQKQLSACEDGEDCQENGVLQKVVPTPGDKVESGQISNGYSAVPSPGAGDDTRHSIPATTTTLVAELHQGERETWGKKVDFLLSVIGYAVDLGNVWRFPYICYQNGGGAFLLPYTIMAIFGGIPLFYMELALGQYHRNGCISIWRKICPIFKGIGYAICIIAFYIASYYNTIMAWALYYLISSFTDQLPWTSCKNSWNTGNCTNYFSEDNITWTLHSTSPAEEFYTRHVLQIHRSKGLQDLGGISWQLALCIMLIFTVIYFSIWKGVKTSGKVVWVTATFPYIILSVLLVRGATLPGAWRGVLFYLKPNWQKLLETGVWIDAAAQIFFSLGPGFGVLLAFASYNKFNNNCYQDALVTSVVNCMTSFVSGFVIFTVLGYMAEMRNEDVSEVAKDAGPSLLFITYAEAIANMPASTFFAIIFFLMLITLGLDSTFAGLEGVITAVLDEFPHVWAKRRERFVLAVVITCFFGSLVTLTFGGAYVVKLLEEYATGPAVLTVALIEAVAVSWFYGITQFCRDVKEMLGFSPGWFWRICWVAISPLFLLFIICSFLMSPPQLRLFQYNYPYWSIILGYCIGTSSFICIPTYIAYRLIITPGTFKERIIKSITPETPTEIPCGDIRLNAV

[6] = Distribution coefficient, logD of the compound at pH 7.4; type: physicochemical; conditions: octanol/water
[7] = biological target: Voltage-dependent L-type calcium channel subunit alpha-1C (Homo sapiens, UniProt Q13936); test: Displacement of [3H]-diltiazem from human Cav1.2 channel
[8] = biological target: Voltage-gated inwardly rectifying potassium channel KCNH2 (Homo sapiens, UniProt Q12809); test: Binding affinity to human ERG channel
Voltage-gated inwardly rectifying potassium channel KCNH2, sequence (Q12809 whole entry): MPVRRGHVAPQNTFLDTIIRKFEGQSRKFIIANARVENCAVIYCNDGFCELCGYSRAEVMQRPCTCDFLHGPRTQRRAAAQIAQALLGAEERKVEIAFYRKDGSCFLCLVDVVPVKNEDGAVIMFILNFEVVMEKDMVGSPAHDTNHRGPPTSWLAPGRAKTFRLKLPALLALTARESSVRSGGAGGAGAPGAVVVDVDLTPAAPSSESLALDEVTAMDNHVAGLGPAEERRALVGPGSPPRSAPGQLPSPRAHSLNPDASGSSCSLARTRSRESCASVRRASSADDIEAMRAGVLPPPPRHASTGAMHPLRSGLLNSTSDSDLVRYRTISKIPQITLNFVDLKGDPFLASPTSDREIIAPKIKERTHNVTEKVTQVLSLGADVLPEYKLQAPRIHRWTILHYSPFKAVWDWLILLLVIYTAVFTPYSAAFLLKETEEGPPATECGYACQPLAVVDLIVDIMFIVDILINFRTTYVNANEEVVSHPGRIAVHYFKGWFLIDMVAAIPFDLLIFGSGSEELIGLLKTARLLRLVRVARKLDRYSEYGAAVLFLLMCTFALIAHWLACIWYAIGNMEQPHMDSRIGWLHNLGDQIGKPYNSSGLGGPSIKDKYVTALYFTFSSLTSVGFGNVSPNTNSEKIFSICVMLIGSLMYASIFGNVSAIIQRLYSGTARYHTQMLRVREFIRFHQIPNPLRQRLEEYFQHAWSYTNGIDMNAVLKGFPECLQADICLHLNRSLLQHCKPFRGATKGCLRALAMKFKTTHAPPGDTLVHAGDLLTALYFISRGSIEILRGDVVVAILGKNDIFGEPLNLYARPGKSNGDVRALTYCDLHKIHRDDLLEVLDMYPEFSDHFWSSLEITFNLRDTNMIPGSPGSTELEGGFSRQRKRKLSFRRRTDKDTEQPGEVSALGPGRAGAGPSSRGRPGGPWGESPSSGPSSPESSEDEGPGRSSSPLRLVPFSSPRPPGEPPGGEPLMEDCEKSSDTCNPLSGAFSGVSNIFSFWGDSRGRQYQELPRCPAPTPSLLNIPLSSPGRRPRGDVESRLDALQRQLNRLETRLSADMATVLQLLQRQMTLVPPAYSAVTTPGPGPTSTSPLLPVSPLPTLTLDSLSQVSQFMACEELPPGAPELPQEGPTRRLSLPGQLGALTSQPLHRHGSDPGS

Cytochrome P450 3A4 = Cytochrome P450 3A4 (Homo sapiens, UniProt P08684); test: Inhibition of CYP3A4 in human liver microsomes assessed as testosterone 6beta-hydroxylation; type: ADME
Cytochrome P450 3A4, sequence (P08684 whole entry): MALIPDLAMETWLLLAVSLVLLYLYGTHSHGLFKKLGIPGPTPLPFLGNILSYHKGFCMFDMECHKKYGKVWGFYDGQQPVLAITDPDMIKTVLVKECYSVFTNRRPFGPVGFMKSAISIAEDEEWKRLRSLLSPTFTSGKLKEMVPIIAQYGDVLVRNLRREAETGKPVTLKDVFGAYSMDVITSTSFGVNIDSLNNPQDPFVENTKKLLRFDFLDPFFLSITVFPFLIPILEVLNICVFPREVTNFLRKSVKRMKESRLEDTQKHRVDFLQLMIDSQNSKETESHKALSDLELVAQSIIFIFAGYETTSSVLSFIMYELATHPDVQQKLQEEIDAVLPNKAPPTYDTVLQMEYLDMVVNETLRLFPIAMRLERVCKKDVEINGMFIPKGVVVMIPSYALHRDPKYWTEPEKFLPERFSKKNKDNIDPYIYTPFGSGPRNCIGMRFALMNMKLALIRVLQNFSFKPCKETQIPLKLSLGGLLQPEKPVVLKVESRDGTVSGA

Cytochrome P450 2D6 = Cytochrome P450 2D6 (Homo sapiens, UniProt P10635); test: Inhibition of CYP2D6 in human liver microsomes assessed as dextraomethorphan O-demethylation; type: ADME
Cytochrome P450 2D6, sequence (P10635 whole entry): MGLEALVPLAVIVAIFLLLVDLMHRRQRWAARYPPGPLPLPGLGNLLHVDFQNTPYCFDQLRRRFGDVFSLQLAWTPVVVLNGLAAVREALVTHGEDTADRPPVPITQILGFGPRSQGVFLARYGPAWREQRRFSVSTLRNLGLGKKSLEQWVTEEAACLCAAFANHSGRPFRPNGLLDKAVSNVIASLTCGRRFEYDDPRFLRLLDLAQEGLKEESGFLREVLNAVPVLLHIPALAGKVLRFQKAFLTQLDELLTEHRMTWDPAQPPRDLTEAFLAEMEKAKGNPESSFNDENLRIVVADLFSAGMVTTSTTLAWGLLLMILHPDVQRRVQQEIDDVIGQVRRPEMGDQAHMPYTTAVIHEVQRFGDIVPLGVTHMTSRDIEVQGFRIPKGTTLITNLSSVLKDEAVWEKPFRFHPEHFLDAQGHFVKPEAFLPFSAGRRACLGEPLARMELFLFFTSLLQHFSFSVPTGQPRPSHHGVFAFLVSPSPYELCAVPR

Cytochrome P450 2C9 = Cytochrome P450 2C9 (Homo sapiens, UniProt P11712); test: Inhibition of CYP2C9 in human liver microsomes assessed as diclofenac alpha'-hydroxylation; type: ADME
Cytochrome P450 2C9, sequence (P11712 whole entry): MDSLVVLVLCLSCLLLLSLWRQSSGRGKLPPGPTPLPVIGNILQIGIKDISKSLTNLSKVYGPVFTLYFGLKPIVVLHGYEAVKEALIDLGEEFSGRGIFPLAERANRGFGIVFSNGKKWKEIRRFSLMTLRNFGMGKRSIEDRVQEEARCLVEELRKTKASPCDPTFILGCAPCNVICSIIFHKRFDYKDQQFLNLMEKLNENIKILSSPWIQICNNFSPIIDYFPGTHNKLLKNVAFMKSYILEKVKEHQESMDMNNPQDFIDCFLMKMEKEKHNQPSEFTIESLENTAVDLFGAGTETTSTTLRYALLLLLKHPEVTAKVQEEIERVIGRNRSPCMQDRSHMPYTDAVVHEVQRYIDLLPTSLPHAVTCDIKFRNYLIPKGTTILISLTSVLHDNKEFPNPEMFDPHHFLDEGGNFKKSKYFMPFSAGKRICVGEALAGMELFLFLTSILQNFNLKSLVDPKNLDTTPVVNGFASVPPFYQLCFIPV

[9] = biological target: T1, Beta-3 adrenergic receptor; test: Agonist activity at human beta3 adrenergic receptor expressed in CHO cells assessed as accumulation of cAMP after 30 mins by TR-FRET assay relative to (R)-(-)-isoproterenol; type: functional, cell-based
Rattus norvegicus [10] = test: Unbound clearance in rat at 1 mg/kg, iv or 2 mg/kg, po; type: ADME, organism-based; conditions: in vivo
Canis familiaris [11] = test: Unbound clearance in dog at 0.5 mg/kg, iv or 2 mg/kg, po; type: ADME, organism-based, Canis lupus familiaris; conditions: in vivo
Rhesus monkey [12] = test: Unbound clearance in rhesus monkey at 0.5 mg/kg, iv or 2 mg/kg, po; type: ADME, organism-based, Macaca mulatta; conditions: in vivo
Rattus norvegicus [13] = test: Dose normalized total AUC in rat at 2 mg/kg, po; type: ADME, organism-based; conditions: in vivo
Canis familiaris [14] = test: Dose normalized total AUC in dog at 2 mg/kg, po; type: ADME, organism-based, Canis lupus familiaris; conditions: in vivo
Rhesus monkey [15] = test: Dose normalized total AUC in rhesus monkey at 2 mg/kg, po; type: ADME, organism-based, Macaca mulatta; conditions: in vivo
[16] = Oral bioavailability in rat at 2 mg/kg; type: ADME, organism-based; conditions: in vivo
[17] = Oral bioavailability in dog at 2 mg/kg; type: ADME, organism-based, Canis lupus familiaris; conditions: in vivo
[18] = Oral bioavailability in rhesus monkey at 2 mg/kg; type: ADME, organism-based, Macaca mulatta; conditions: in vivo
[19] = Fraction unbound in rat at 1 mg/kg, iv or 2 mg/kg, po; type: ADME, organism-based; conditions: in vivo
[20] = Fraction unbound in dog at 0.5 mg/kg, iv or 2 mg/kg, po; type: ADME, organism-based, Canis lupus familiaris; conditions: in vivo
[21] = Fraction unbound in rhesus monkey at 0.5 mg/kg, iv or 2 mg/kg, po; type: ADME, organism-based, Macaca mulatta; conditions: in vivo
[22] = biological target: Beta-3 adrenergic receptor (Rattus norvegicus, UniProt P26255); test: Agonist activity at rat beta3 adrenergic receptor expressed in CHO cells assessed as accumulation of cAMP after 30 mins by TR-FRET assay; type: functional, cell-based
Beta-3 adrenergic receptor (Rattus norvegicus, UniProt P26255), sequence (P26255 whole entry): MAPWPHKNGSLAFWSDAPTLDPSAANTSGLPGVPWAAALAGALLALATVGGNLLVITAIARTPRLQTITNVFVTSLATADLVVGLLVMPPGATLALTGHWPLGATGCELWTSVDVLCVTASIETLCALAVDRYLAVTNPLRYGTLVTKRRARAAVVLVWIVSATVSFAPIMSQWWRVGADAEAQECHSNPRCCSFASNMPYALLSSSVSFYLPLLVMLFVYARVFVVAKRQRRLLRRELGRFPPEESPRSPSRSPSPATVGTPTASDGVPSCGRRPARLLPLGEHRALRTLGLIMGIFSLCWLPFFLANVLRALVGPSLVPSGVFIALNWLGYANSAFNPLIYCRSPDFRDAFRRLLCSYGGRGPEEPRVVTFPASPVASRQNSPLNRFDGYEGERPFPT

[23] = biological target: Beta-3 adrenergic receptor (Rattus norvegicus) (UniProt P26255); test: Agonist activity at rat beta3 adrenergic receptor expressed in CHO cells assessed as accumulation of cAMP after 30 mins by TR-FRET assay relative to (R)-(-)-isoproterenol; type: functional, cell-based
Beta-3 adrenergic receptor (Rattus norvegicus), sequence (P26255 whole entry): as above

[24] = biological target: T2, Beta-3 adrenergic receptor (Macaca mulatta, UniProt Q28524); test: Agonist activity at rhesus monkey beta3 adrenergic receptor expressed in CHO cells assessed as accumulation of cAMP after 30 mins by TR-FRET assay; type: functional, cell-based
T2 sequence (Q28524 whole entry): as the sequence (Q28524 whole entry) above

[25] = biological target: Beta-3 adrenergic receptor (Macaca mulatta) (UniProt Q28524); test: Agonist activity at rhesus monkey beta3 adrenergic receptor expressed in CHO cells assessed as accumulation of cAMP after 30 mins by TR-FRET assay relative to (R)-(-)-isoproterenol; type: functional, cell-based
[26] = biological target: T2, Beta-3 adrenergic receptor; test: Agonist activity at rhesus monkey beta3 adrenergic receptor expressed in CHO cells assessed as accumulation of cAMP after 30 mins by TR-FRET assay in presence of 40% serum; type: functional, cell-based
[27] = Solubility of the compound in buffer at pH >= […]; type: physicochemical

Beta-3 adrenergic receptor (Canis lupus familiaris, UniProt O02662), sequence (O02662 whole entry): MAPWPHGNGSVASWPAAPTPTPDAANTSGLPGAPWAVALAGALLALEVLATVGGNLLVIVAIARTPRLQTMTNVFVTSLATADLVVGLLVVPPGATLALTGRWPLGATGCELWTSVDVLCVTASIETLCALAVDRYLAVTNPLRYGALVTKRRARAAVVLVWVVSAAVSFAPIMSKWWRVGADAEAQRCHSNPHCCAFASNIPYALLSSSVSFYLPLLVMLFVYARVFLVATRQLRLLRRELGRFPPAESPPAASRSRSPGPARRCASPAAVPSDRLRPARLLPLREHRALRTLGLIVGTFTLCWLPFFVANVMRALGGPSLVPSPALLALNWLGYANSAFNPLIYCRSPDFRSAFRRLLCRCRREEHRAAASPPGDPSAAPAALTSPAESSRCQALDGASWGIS

EC50 [1]: 0.025 µM | max activation [2]: 106% | max activation [3]: 17% | AC50 [4]: 0.56 µM | IC50 [5]: 5 µM | logD [6]: 4.7 | IC50 (Cytochrome P450 3A4): 9.3 µM | IC50 (Cytochrome P450 2D6): 11 µM | IC50 (Cytochrome P450 2C9): 24 µM | max activation [9]: 93% | CL free (Rattus norvegicus [10]): > 3100 mL/min/kg | CL free (Canis familiaris [11]): > 1000 mL/min/kg | CL free (Rhesus monkey [12]): > 950 mL/min/kg | AUC/dose (Rattus norvegicus [13]): 70 nM·h/mg/kg | AUC/dose (Canis familiaris [14]): 290 nM·h/mg/kg | AUC/dose (Rhesus monkey [15]): 50 nM·h/mg/kg | bioavailability [16]: 17% | bioavailability [17]: 27% | bioavailability [18]: 4% | fraction unbound [19]: ≤ 0.02 | fraction unbound [20]: ≤ 0.02 | fraction unbound [21]: ≤ 0.02 | EC50 [22]: 3.4 µM | max activation [23]: 17% | EC50 [24]: 0.00043 µM | max activation [25]: 81% | EC50 [26]: 0.017 µM | solubility [27]: < 100 µg/mL
Compound: O=S(=O)(Nc1ccc(CCNC[C@H](O)c2cccnc2)cc1)c1ccc(-c2nc(-c3ccc(C(F)(F)F)cc3)cs2)cc1
IC50 [7]: 1.7 µM | IC50 [8]: 0.22 µM
